Results from patent US8877940B2, “Antibiotic tolerance inhibitors” (Institut National de la Recherche Scientifique, priority 2011, dated 2014).

Key:
[1] = test system: 4-hydroxy-2-alkylquinoline (HAQ) levels, P. aeruginosa PA14 (MvfR regulon); assay type: cell-based, Pseudomonas aeruginosa; details: for activity (impacts on HAQ and pyocyanin levels), structure-activity comparison / HAQ production / HAQ inhibition: tested at 10 μM; for concentration at which compound was effective (decreased HAQ levels), as low as: among the seventeen HAQ-lowering hits; for reduction / inhibition of HAQs: very low concentrations, nanomolar range
[2] = test system: ΔmvfR mutant constitutively expressing the pqsABCD genes; test: HAQ production in ΔmvfR mutant constitutively expressing pqsABCD (LC/MS); assay type: cell-based, Pseudomonas aeruginosa; details: 100 μM inhibitor
From the text: However, since these compounds diminish or abolish P. aeruginosa HAQ production, it is possible that they target either the MvfR protein itself or enzymes in the pqs operon that are required for HAQ synthesis. To further understand the target(s) of these compounds, a ΔmvfR mutant constitutively expressing the pqsABCD genes was used. This strain is capable of synthesizing HHQ, HQNO, PQS and DHQ independently of MvfR. […] Since PqsA and PqsD are necessary and sufficient for DHQ production, it is possible that these inhibitors target either PqsB or PqsC enzymes, which are required for HHQ and PQS production.

[3] = test system: pyocyanin, an MvfR-regulated virulence factor, P. aeruginosa PA14; test: Quantification of pyocyanin (OD520nm of chloroform-extracted cultures); assay type: cell-based, Pseudomonas aeruginosa; details: for pyocyanin levels: twelve of the 17 HAQ-lowering hits, vs control; for reduction / inhibition of pyocyanin: very low concentrations, nanomolar range
Description: Pyocyanin levels were determined by measuring OD520nm of chloroform-extracted cultures.
Compounds were tested at various concentrations for their impact on 4-hydroxy-2-alkylquinoline (HAQ) levels, including the MvfR ligands 4-hydroxy-2-heptylquinoline (HHQ) and 3,4-dihydroxy-2-heptylquinoline (PQS), as well as 2-n-heptyl-4-hydroxyquinoline-N-oxide (HQNO) and 2,4-dihydroxyquinoline (DHQ) (FIGS. 2A-2C). Levels of the phenazine, pyocyanin, an MvfR-regulated virulence factor, were also determined.

[4] = test system: Raw264.7 macrophage cells infected with PA14; test: Viability of PA14-infected macrophage cells (MTT assay); assay type: cell-based; details: PA14 MOI 100, 3 h, 100 μM compound
Description: Raw264.7 macrophage cells were cultured in Dulbecco's modified eagles medium (DMEM) containing 10% FCS, 2 mM glutamine and antibiotic-antimycotic solutions. Before infections cells were washed with PBS (without Mg2+ and Ca2+) and antibiotic-free medium was used for infections. The cells were infected with PA14 and PA14 isolates grown in the presence of compounds at an MOI of 100 for 3 h at 37° C. in a 5% CO2 atmosphere. During infections cells were incubated with 100 μM of compounds as well. After 3 hours of PA14 infection, the cells were washed and incubated with DMEM medium containing polymixin B and gentamicin in order to kill the extracellular bacteria. The viability of Raw264.7 was assessed using the MTT assay, which detects the early sign of eukaryotic cell death. The formazan crystals formed in viable, metabolically active cells were dissolved by the addition of 100 μl DMSO and optical density was measured at 570 nm in a microplate reader.
In order to determine whether or not the potent inhibitors are cytotoxic in eukaryotes, Raw 264.7 macrophage cells were exposed to selected compounds. No significant cytotoxicity was observed following compound exposure for 3 hours compared to the DMSO solvent control (FIG. 6A). The cytotoxicity of the macrophage cells was also determined when infected with PA14 bacterial cells alone or in the presence of the compounds.

P. aeruginosa PA14 = test: Murine burn and infection model, M64 plus ciprofloxacin; assay type: in vivo, DC-1 mice; details: IV at 6, 20, 28, 40, 60, 68 and 80 h; M64 100 μM (4 mg/Kg), ciprofloxacin 0.4 mg/Kg; 7 days; un-injected controls 30%
From the text: A murine thermal injury model (Stevens et al., J Burn Care Rehabil. 1994; 15:232-235) was used as previously described to further assess bacterial pathogenicity in 6-wk-old DC-1 mice (Rahme et al., Science, 268(5219): p. 1899-902 (1995)) in the presence of combination of Ciprofloxacin (Bayer AG) and M64. Following mouse anesthetization, a full-thickness thermal burn injury involving 5%-8% of the body surface area was produced on the dermis of the shaved abdomen, and an inoculum of about 6-7×10^3 PA14 cells was injected intradermally into the burn eschar along with DMSO or 100 μM M64 compound. 100 μM (4 mg/Kg) of M64, 0.4 mg/Kg of ciprofloxacin (lower than the recommended dose of 10 mg/Kg), or a combination of M64+ciproflocaxin was also injected IV via tail vein at 6, 20, 28, 40, 60, 68 h and 80 h post-infection. Mice survival was subsequently assessed over the course of 7 days. Ten animals per treatment were used. In this set of experiments the concentration of ciprofloxacin used was lower than the therapeutic levels recommended to permit assessment of the possible synergistic effect between M64 and ciprofloxacin.

## O=C(CSc1nc2ccccc2[nH]1)Nc1ccc(Br)cc1 [Compound M55, 2-((1H-benzo[d]imidazol-2-yl)thio)-N-(4-bromophenyl)acetamide]
[1]
  activity (impacts on HAQ and pyocyanin levels), structure-activity comparison: active compounds
[2]
  DHQ level: increased
  HHQ and HQNO levels: reduced

## O=C(CSc1nc2ccc(NC(=O)C(F)(F)F)cc2[nH]1)Nc1ccc(I)cc1 [Compound M63, 2,2,2-trifluoro-N-(2-((2-((4-iodophenyl)amino)-2-oxoethyl)thio)-1H-benzo[d]imidazol-6-yl)acetamide]
[1]
  activity (impacts on HAQ and pyocyanin levels), structure-activity comparison: inactive

## COc1ccc(NC(=O)CSc2nc3ccc([N+](=O)[O-])cc3[nH]2)cc1 [Compound M61, N-(4-methoxyphenyl)-2-((6-nitro-1H-benzo[d]imidazol-2-yl)thio)acetamide]
[1]
  activity (impacts on HAQ and pyocyanin levels), structure-activity comparison: most active
[2]
  HAQ levels compared to the solvent control: do not significantly alter HAQ levels

## N#Cc1ccc(NC(=O)CSc2nc3ccccc3[nH]2)cc1 [Compound B1, 2-((1H-benzo[d]imidazol-2-yl)thio)-N-(4-cyanophenyl)acetamide]
[1]
  activity (impacts on HAQ and pyocyanin levels), structure-activity comparison: active compounds
[3]
  pyocyanin levels: less than half of the control
[2]
  HAQ levels compared to the solvent control: intermediate phenotype

## O=C(CSc1nc2ccccc2[nH]1)Nc1ccc(Cl)cc1 [Compound M26, 2-((1H-benzo[d]imidazol-2-yl)thio)-N-(4-chlorophenyl)acetamide]
[1]
  concentration at which compound was effective (decreased HAQ levels), as low as: 10 µM
  activity (impacts on HAQ and pyocyanin levels), structure-activity comparison: active compounds
[3]
  pyocyanin levels: less than half of the control
[2]
  DHQ level: increased
  HHQ and HQNO levels: reduced

## COc1ccccc1NC(=O)CSc1nc2ccccc2[nH]1 [Compound M46, 2-((1H-benzo[d]imidazol-2-yl)thio)-N-(2-methoxyphenyl)acetamide]
[1]
  activity (impacts on HAQ and pyocyanin levels), structure-activity comparison: did not improve the activity

## CC(=O)Nc1ccc2nc(SCC(=O)Nc3ccc(I)cc3)[nH]c2c1 [Compound M65, 2-((6-acetamido-1H-benzo[d]imidazol-2-yl)thio)-N-(4-iodophenyl)acetamide]
[1]
  activity (impacts on HAQ and pyocyanin levels), structure-activity comparison: inactive

## COc1ccc(NC(=O)CSc2nc3ccc([N+](=O)[O-])cc3[nH]2)c(OC)c1 [Compound M34, N-(2,4-dimethoxyphenyl)-2-((6-nitro-1H-benzo[d]imidazol-2-yl)thio)acetamide]
[1]
  concentration at which compound was effective (decreased HAQ levels), as low as: 10 µM
  activity (impacts on HAQ and pyocyanin levels), structure-activity comparison: quite active
[3]
  pyocyanin levels: less than half of the control
[2]
  HAQ levels compared to the solvent control: do not significantly alter HAQ levels

## N#Cc1ccc(NC(=O)CSc2nc3ccc([N+](=O)[O-])cc3[nH]2)cc1 [Compound M62, N-(4-cyanophenyl)-2-((6-nitro-1H-benzo[d]imidazol-2-yl)thio)acetamide]
[1]
  activity (impacts on HAQ and pyocyanin levels), structure-activity comparison: most active
[2]
  HAQ levels compared to the solvent control: do not significantly alter HAQ levels
[4]
  reduction of PA14-induced cytotoxicity: effectively reduced cytotoxicity

## O=C(CSc1nc2ccc([N+](=O)[O-])cc2[nH]1)Nc1ccc(OC(F)(F)F)cc1 [Compound M58, 2-((6-nitro-1H-benzo[d]imidazol-2-yl)thio)-N-(4-(trifluoromethoxy)phenyl)acetamide]
[1]
  activity (impacts on HAQ and pyocyanin levels), structure-activity comparison: most active
[2]
  HAQ levels compared to the solvent control: intermediate phenotype

## COc1ccc2nc(SCC(=O)Nc3ccc(Cl)c(Cl)c3)[nH]c2c1 [Compound M24, N-(3,4-dichlorophenyl)-2-((6-methoxy-1H-benzo[d]imidazol-2-yl)thio)acetamide]
[1]
  activity (impacts on HAQ and pyocyanin levels), structure-activity comparison: decreased the activity

## CC(C)c1ccc(NC(=O)CSc2nc3ccccc3[nH]2)cc1 [Compound M49, 2-((1H-benzo[d]imidazol-2-yl)thio)-N-(4-isopropylphenyl)acetamide]
[1]
  activity (impacts on HAQ and pyocyanin levels), structure-activity comparison: more active compound

## CCc1ccc(NC(=O)CSc2nc3ccc(C)cc3[nH]2)cc1 [Compound M23, N-(4-ethylphenyl)-2-((6-methyl-1H-benzo[d]imidazol-2-yl)thio)acetamide]
[1]
  activity (impacts on HAQ and pyocyanin levels), structure-activity comparison: moderately active
[3]
  pyocyanin levels: less than half of the control
[2]
  DHQ level: increased
  HHQ and HQNO levels: reduced

## Cc1ccc2nc(SCC(=O)Nc3ccc(Br)cc3)[nH]c2c1 [Compound M27, N-(4-bromophenyl)-2-((6-methyl-1H-benzo[d]imidazol-2-yl)thio)acetamide]
[1]
  concentration at which compound was effective (decreased HAQ levels), as low as: 10 µM
  activity (impacts on HAQ and pyocyanin levels), structure-activity comparison: more active than M55
[3]
  pyocyanin levels: less than half of the control
[2]
  DHQ level: increased
  HHQ and HQNO levels: reduced
[4]
  reduction of PA14-induced cytotoxicity: effectively reduced cytotoxicity

## O=C(CSc1nc2ccc([N+](=O)[O-])cc2[nH]1)Nc1ccc(I)cc1 [Compound M59, N-(4-iodophenyl)-2-((6-nitro-1H-benzo[d]imidazol-2-yl)thio)acetamide]
[1]
  activity (impacts on HAQ and pyocyanin levels), structure-activity comparison: most active
  reduction / inhibition of HAQs: considerably inhibited
[3]
  reduction / inhibition of pyocyanin: considerably inhibited
[2]
  HAQ levels compared to the solvent control: intermediate phenotype

## O=C(CSc1nc2ccccc2[nH]1)Nc1ccccc1 [Compound M56, 2-((1H-benzo[d]imidazol-2-yl)thio)-N-phenylacetamide]
[1]
  HAQ production / HAQ inhibition: little impact
[3]; tested at 10 μM
  pyocyanin production: little impact

## O=C(CSc1nc2ccc([N+](=O)[O-])cc2[nH]1)Nc1ccc(Cl)cc1 [Compound M51, N-(4-chlorophenyl)-2-((6-nitro-1H-benzo[d]imidazol-2-yl)thio)acetamide]
[1]
  activity (impacts on HAQ and pyocyanin levels), structure-activity comparison: most active
[2]
  HAQ levels compared to the solvent control: intermediate phenotype

## O=C(CSc1nc2ccc([N+](=O)[O-])cc2[nH]1)Nc1ccc(Br)cc1 [Compound M50, N-(4-bromophenyl)-2-((6-nitro-1H-benzo[d]imidazol-2-yl)thio)acetamide]
[1]
  activity (impacts on HAQ and pyocyanin levels), structure-activity comparison: most active
  reduction / inhibition of HAQs: considerably inhibited
[3]
  reduction / inhibition of pyocyanin: considerably inhibited
[2]
  HAQ levels compared to the solvent control: do not significantly alter HAQ levels
[4]
  reduction of PA14-induced cytotoxicity: effectively reduced cytotoxicity

## CSc1cccc(NC(=O)CSc2nc3ccccc3[nH]2)c1 [Compound M4, 2-((1H-benzo[d]imidazol-2-yl)thio)-N-(3-(methylthio)phenyl)acetamide]
[1]
  concentration at which compound was effective (decreased HAQ levels), as low as: 10 µM
  HAQ production / HAQ inhibition: improved HAQ inhibition
[2]
  DHQ level: increased
  HHQ and HQNO levels: reduced

## COc1ccccc1NC(=O)CSc1nc2ccc([N+](=O)[O-])cc2[nH]1 [Compound M53, N-(2-methoxyphenyl)-2-((6-nitro-1H-benzo[d]imidazol-2-yl)thio)acetamide]
[1]
  activity (impacts on HAQ and pyocyanin levels), structure-activity comparison: not very active
[2]
  HAQ levels compared to the solvent control: do not significantly alter HAQ levels

## O=C(CSc1nc2ccccc2[nH]1)Nc1ccc(Cl)c(Cl)c1 [Compound M22, 2-((1H-benzo[d]imidazol-2-yl)thio)-N-(3,4-dichlorophenyl)acetamide]
[1]
  activity (impacts on HAQ and pyocyanin levels), structure-activity comparison: decreased the activity as compared to M26

## O=C(CSc1nc2ccccc2[nH]1)Nc1ccc([N+](=O)[O-])cc1 [Compound M45, 2-((1H-benzo[d]imidazol-2-yl)thio)-N-(4-nitrophenyl)acetamide]
[1]
  activity (impacts on HAQ and pyocyanin levels), structure-activity comparison: did not improve the activity

## O=C(O)c1cn(C2CC2)c2cc(N3CCNCC3)c(F)cc2c1=O [ciprofloxacin, reference compound]
P. aeruginosa PA14
  survival rate: 80%
